Test results taken from US20050202111A1, “Anti-Parkinson's disease pharmaceutical and method of use” (priority 2004, published 2005).

Columns and labels:
[1] = test system: N-methyl-4-phenyl-1,2,3,6-tetrahydropyridine induced dopaminergic neurodegeneration; settings: in vivo; cited from earlier work
mitochondrial complex-I = experiment: In vivo effect on brain mitochondrial complex-I activity (NADH oxidation); design: species or system Sprague Dawley rats; settings: intraperitoneally for 2 weeks, brain mitochondrial (P2) fraction
Experimental: Various doses of MPX were administered intraperitoneally to Sprague Dawley rats for 2 weeks, while a control group was treated with saline. The rats were sacrificed one hour after the last injection, and the mitochondrial (P2) fraction was prepared from the dissected rat brains. Mitochondrial complex-I activity was based on the oxidation of NADH (5.6 mg in 1 ml water) measured at 340 nm (Ramsay et al. 1986. “Inhibition of mitochondrial NADH dehydrogenase by pyridine derivatives and its possible relation to experimental and idiopathic parkinsonism,” Biochem Biophys Res Commun 135:269-275 (this references is hereby incorporated by reference in its entirety)).

complex-I = settings: mouse, in vivo; cited from earlier work

Compound: O=C(O[C@@H]1Cc2c(O)cc(O)cc2O[C@@H]1c1cc(O)c(O)c(O)c1)c1cc(O)c(O)c(O)c1 [(−)-epigallocatechin-3-gallate]
- dopaminergic neurodegeneration [1]: prevents N-methyl-4-phenyl-1,2,3,6-tetrahydropyridine induced dopaminergic neurodegeneration

Compound: N[C@@H](Cc1ccc(O)c(O)c1)C(=O)O [Levodopa, L-3,4-dihydroxyphenylalanine]
- mitochondrial complex-I activity (mitochondrial complex-I): significantly inhibitory effect on complex-I

Compound: CC(=O)N[C@@H](CS)C(=O)O [N-acetylcysteine]
- age-related decrease in complex-I activity (complex-I): can protect against age-related decrease in complex-I activity
